From ChEMBL document CHEMBL5131564, “Discovery of Potent and Selective Receptor-Interacting Serine/Threonine Protein Kinase 2 (RIPK2) Inhibitors for the Treatment of Inflammatory Bowel Diseases (IBDs)” (J Med Chem, 2022)
Activity calls are given as the source filed them. The rule behind the calls is not given here.

Legend:
[1] = target: Proto-oncogene tyrosine-protein kinase Src (Homo sapiens, UniProt P12931); experiment: Inhibition of human c-SRC by kinase assay
[2] = target: Serine/threonine-protein kinase SIK1 (Homo sapiens, UniProt P57059); experiment: Inhibition of human SIK by kinase assay
Chain of Serine/threonine-protein kinase SIK1 (P57059 whole entry): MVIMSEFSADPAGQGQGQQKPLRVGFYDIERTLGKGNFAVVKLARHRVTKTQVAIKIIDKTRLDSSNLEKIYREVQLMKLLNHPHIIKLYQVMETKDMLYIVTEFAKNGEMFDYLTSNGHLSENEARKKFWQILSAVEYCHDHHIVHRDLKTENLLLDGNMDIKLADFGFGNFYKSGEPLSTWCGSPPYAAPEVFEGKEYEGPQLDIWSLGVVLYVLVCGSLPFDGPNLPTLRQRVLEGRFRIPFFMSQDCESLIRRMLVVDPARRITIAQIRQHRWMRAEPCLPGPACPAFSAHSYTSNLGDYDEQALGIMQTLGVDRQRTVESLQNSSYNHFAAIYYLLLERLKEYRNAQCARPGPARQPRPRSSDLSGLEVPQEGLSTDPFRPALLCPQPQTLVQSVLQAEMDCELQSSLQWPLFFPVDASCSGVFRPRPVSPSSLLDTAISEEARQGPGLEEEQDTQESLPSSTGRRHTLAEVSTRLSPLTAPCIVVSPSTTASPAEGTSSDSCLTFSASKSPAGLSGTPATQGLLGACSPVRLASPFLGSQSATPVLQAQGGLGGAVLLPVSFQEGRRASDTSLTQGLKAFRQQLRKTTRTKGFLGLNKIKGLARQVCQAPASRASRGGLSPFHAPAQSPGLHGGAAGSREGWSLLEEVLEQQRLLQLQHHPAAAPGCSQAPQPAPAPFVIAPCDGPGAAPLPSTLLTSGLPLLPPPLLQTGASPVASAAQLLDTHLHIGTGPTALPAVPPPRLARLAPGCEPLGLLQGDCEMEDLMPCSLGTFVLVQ

[3] = target: T1, Receptor-type tyrosine-protein kinase FLT3 (Homo sapiens, UniProt P36888); experiment: Inhibition of human FLT3 by kinase assay
T1 sequence (P36888 whole entry): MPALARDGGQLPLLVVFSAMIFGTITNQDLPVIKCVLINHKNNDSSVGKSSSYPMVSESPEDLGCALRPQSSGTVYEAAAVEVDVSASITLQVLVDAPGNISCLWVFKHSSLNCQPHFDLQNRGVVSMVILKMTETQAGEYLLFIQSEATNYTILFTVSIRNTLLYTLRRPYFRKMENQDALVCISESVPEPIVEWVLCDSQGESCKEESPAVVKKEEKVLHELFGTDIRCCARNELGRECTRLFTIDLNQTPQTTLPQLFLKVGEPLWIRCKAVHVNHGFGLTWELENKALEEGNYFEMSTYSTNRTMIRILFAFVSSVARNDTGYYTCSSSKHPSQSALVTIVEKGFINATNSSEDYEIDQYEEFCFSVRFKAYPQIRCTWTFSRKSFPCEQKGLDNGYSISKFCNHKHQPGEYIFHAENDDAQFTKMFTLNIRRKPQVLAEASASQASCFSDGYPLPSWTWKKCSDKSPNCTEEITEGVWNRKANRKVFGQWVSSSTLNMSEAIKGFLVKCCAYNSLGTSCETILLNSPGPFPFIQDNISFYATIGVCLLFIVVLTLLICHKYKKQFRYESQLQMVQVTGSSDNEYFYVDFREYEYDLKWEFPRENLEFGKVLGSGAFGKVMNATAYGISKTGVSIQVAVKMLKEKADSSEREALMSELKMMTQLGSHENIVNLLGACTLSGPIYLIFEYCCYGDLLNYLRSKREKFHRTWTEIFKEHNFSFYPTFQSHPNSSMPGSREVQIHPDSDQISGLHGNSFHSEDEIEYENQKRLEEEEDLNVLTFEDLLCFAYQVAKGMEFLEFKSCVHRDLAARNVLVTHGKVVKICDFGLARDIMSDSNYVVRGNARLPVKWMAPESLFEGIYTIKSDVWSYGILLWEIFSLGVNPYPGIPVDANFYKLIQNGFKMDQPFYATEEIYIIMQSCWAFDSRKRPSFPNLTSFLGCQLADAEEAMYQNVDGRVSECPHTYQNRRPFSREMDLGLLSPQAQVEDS

[4] = target: T2, Receptor-interacting serine/threonine-protein kinase 1 (Homo sapiens, UniProt Q13546); experiment: Inhibition of human RIPK1 by kinase assay
T2 sequence (Q13546 whole entry): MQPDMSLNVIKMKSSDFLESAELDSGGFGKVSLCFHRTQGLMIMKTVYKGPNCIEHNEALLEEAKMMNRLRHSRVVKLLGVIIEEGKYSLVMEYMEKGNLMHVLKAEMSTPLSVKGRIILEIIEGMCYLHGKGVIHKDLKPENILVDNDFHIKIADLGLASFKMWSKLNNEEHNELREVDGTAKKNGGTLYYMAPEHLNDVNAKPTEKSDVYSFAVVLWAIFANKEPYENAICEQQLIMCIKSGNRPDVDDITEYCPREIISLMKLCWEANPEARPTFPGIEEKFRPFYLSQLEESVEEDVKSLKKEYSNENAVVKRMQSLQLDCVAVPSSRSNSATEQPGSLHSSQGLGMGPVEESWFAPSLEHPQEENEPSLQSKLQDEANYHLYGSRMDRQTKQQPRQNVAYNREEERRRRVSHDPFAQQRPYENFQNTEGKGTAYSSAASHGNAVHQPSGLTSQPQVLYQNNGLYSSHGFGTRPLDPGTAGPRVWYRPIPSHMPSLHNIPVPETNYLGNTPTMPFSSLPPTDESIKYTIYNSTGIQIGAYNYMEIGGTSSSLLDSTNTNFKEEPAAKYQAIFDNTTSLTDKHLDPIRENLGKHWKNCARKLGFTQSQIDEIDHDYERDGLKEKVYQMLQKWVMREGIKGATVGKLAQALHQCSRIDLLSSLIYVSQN

[5] = target: Receptor-interacting serine/threonine-protein kinase 3 (Homo sapiens, UniProt Q9Y572); experiment: Binding affinity to human RIPK3 in human Jurkat cells; type: cell-based
Chain of Receptor-interacting serine/threonine-protein kinase 3 (Q9Y572 whole entry): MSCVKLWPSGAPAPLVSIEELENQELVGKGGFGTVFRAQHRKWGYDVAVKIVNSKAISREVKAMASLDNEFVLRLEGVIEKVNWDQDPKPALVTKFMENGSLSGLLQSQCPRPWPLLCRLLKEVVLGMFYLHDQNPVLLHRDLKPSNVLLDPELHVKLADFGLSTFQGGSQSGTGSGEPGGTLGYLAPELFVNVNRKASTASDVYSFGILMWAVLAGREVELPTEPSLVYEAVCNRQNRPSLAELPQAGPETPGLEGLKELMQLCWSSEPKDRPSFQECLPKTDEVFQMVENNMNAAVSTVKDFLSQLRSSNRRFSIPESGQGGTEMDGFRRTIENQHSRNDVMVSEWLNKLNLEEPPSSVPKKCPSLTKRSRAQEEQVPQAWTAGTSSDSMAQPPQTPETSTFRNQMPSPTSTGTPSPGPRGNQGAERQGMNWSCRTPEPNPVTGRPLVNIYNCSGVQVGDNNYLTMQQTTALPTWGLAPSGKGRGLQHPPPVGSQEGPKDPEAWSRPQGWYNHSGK

[6] = Elimination half life in Balb/C mouse at 10 mg/kg, iv measured upto 48 hrs by LC-MS/MS analysis; type: ADME, organism-based; settings: in vivo, read-out: beta t1/2 (converted)
[7] = AUC (0 to t) in Balb/C mouse at 10 mg/kg, iv measured upto 48 hrs by LC-MS/MS analysis; type: ADME, organism-based; parameters: time < 48 hrs, dose 10 mg/kg, route iv; settings: in vivo
[8] = AUC (0 to t) in Balb/C mouse at 10 mg/kg, po measured upto 48 hrs by LC-MS/MS analysis; type: ADME, organism-based; parameters: time < 48 hrs, dose 10 mg/kg, route po; settings: in vivo
[9] = Volume of distribution in Balb/C mouse at 10 mg/kg, iv measured upto 48 hrs by LC-MS/MS analysis; type: ADME, organism-based; settings: in vivo
Mus musculus = experiment: Anti-inflammatory activity against DSS-induced acute ulcerative colitis C57BL/6 mouse model assessed as reduction in disease severity at 20 to 40 mg/kg, po once a day measured after 2 days followed by 7 days after DSS treatment; type: functional, organism-based; settings: dose 20-40 mg/kg, time 2.0 day

Chain of Proto-oncogene tyrosine-protein kinase Src (P12931 2-536 limits assumed): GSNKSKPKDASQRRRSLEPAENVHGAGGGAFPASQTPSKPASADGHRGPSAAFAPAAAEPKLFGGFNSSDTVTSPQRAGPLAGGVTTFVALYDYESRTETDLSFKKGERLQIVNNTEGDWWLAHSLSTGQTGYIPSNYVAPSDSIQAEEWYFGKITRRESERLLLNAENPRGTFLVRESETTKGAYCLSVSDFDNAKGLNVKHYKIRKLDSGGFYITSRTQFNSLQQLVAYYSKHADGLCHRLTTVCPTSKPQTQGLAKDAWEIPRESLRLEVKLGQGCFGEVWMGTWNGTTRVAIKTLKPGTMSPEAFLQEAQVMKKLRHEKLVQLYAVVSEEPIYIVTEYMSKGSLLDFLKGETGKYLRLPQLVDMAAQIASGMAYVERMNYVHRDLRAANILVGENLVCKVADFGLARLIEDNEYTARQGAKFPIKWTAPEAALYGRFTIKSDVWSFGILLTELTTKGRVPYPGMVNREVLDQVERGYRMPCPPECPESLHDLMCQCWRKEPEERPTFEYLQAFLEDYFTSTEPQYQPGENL

IC50 [1]: 56 nM
IC50 [2]: 89 nM
IC50 [3]: 4.79 µM
IC50 [4]: > 30 µM
Kd [5]: 74.5 nM
half-life [6]: 234 min
AUC(0-t) at 48 h [7]: 1000 ng·h/mL
AUC(0-t) at 48 h [8]: 151 ng·h/mL
Vd [9]: 43.9 L/kg
SMILES: Cc1ccc(-c2cn([C@H]3CC[C@@H](N)CC3)c3ncnc(N)c23)c(F)c1
Activity (Mus musculus): Active
